Data set [1] has as its target T1, recombinant human Meningioma Expressed Antigen 5 (MGEA5), also referred to as O-GlcNAcase (OGA) (Homo sapiens, UniProt O60502).
T1 construct: Full length OGA enzyme was purchased at OriGene (cat #TP322411); purchased OriGene TP322411
T1 sequence (O60502 1-916): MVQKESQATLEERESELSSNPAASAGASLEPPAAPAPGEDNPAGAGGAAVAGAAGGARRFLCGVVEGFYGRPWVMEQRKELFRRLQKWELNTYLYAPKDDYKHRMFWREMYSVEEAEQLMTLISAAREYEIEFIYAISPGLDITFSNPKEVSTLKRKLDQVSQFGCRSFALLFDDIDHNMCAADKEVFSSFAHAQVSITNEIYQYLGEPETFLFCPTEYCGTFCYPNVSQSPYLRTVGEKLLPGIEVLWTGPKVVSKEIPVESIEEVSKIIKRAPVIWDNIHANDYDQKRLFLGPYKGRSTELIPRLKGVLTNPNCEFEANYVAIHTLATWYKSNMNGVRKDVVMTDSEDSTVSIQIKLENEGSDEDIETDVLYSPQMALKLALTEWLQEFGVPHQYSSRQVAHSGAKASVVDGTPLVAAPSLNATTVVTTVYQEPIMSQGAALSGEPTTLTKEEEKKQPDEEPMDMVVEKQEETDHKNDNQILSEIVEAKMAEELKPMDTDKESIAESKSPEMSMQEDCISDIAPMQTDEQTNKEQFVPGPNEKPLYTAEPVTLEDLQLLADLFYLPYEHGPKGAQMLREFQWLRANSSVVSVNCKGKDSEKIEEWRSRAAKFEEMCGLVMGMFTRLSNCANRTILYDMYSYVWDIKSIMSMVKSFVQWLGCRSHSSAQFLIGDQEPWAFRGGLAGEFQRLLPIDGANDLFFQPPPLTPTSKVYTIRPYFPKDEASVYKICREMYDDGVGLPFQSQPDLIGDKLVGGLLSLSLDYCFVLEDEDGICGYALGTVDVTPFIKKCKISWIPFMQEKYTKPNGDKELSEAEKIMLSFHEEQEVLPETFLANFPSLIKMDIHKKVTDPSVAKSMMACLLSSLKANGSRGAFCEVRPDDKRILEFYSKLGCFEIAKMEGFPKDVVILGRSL
The experiment in a line: OGA biochemical assay (inhibition of FM-GlcNAc hydrolysis, fluorescence). Particulars: for Emax: read-out: Enzymatic Emax (%); for IC50: read-out: Enzymatic hOGA, pIC50 (converted). The method, boiled down:
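Full-length OGA at 2 nM was pre-incubated 60 min at room temperature with compound, then FM-GlcNAc at 100 uM final was added in citrate/phosphate buffer pH 7.2 with 0.005% Tween-20. After 6 h at room temperature, carbonate pH 11.0 stopped the reaction. Fluorescence read at 485/538 nm; IC50 and Hill coefficient from curve fit against no-inhibitor and saturating-standard controls.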

Each structure is given as a SMILES string.

On to `Cc1cc(OC2CCN([C@@H](C)c3nc4nc(C)sc4cc3F)CC2)cc(C)n1` (single isomer, unassigned) [Compound 83], for which, in data set [1], the Emax (commonly the maximal effect, on the per cent scale that the assay sets) was determined as 101% and the IC50 was 5.01 nM.
For `Cc1cc(OC2CCN([C@H](C)c3nc4c(cc3F)CCO4)CC2)cc(C)n1` (single isomer, unassigned) [Compound 144], in data set [1], the maximal effect (Emax) was 97% and the IC50 is 3.16 nM.
Consider `Cc1cc(OC2CCN([C@H](C)c3nc4c(cc3F)OCCO4)CC2)cc(C)n1` (single isomer, unassigned) [Compound 148], for which, in data set [1], the Emax was 98% and the IC50 was 6.31 nM.
For `Cc1ncc(OC2CCN(C(C)c3nc4c(cc3F)CCO4)CC2)cn1` (stereo not drawn) [Compound 95], the melting point (in general, the temperature of the solid-liquid transition) came out at 127.82 °C. Besides, in data set [1], the maximum response (Emax) came out at 96% and the IC50 was 5.01 nM.
